Assay results from ChEMBL document CHEMBL3045723, “Synthesis of novel 3-(5-sulfanyl-1,3,4-oxadiazol-2-yl)-2H-chromen-2-one condensed s-triazinyl piperazines and piperidines as antimicrobial agents” (2012).
Converted amounts (≈) assume the structure as drawn.

Tests used:
Type in all cases: functional
Shigella flexneri [1] = experiment: Antibacterial activity against Shigella flexneri after 24 hr by agar disk diffusion test
Staphylococcus aureus [2] = experiment: Antibacterial activity against Staphylococcus aureus MTCC 96 after 24 hr by agar disk diffusion test
Salmonella typhi [3] = experiment: Antibacterial activity against Salmonella enterica subsp. enterica serovar Typhi MTCC 733 after 24 hr; settings: MTCC 733, 24 h
Pseudomonas aeruginosa [4] = experiment: Antibacterial activity against Pseudomonas aeruginosa MTCC 741
Aspergillus niger [5] = experiment: Antifungal activity against Aspergillus niger MTCC 282 after 24 hr by agar disk diffusion test
Klebsiella pneumoniae [6] = experiment: Antibacterial activity against Klebsiella pneumoniae MTCC 109 after 24 hr; settings: MTCC 109, 24 h
Candida albicans [7] = experiment: Antifungal activity against Candida albicans MTCC 183 after 48 hr; settings: MTCC 183, 48 h
Salmonella typhi [8] = experiment: Antibacterial activity against Salmonella enterica subsp. enterica serovar Typhi MTCC 733 after 24 hr by agar disk diffusion test
Staphylococcus aureus [9] = experiment: Antibacterial activity against Staphylococcus aureus MTCC 96 after 24 hr; settings: MTCC 96, 24 h
Escherichia coli [10] = experiment: Antibacterial activity against Escherichia coli MTCC 739 after 24 hr; settings: MTCC 739, 24 h
Escherichia coli [11] = experiment: Antibacterial activity against Escherichia coli MTCC 739 after 24 hr by agar disk diffusion test
Proteus vulgaris [12] = experiment: Antibacterial activity against Proteus vulgaris MTCC 1771 after 24 hr; settings: MTCC 1771, 24 h
Candida albicans [13] = experiment: Antifungal activity against Candida albicans MTCC 183 after 24 hr by agar disk diffusion test
Proteus vulgaris [14] = experiment: Antibacterial activity against Proteus vulgaris MTCC 1771 after 24 hr by agar disk diffusion test
Aspergillus niger [15] = experiment: Antifungal activity against Aspergillus niger MTCC 282 after 48 hr; settings: MTCC 282, 48 h
Bacillus cereus [16] = experiment: Antibacterial activity against Bacillus cereus MTCC 619 after 24 hr by agar disk diffusion test
Klebsiella pneumoniae [17] = experiment: Antibacterial activity against Klebsiella pneumoniae MTCC 109 after 24 hr by agar disk diffusion test
Pseudomonas aeruginosa [18] = experiment: Antibacterial activity against Pseudomonas aeruginosa MTCC 741 after 24 hr by agar disk diffusion test
Bacillus cereus [19] = experiment: Antibacterial activity against Bacillus cereus MTCC 619 after 24 hr; settings: MTCC 619, 24 h
Shigella flexneri [20] = experiment: Antibacterial activity against Shigella flexneri after 24 hr

Structure (SMILES)	inhibition zone (IZ) (Shigella flexneri [1]) [mm]	inhibition zone (IZ) (Staphylococcus aureus [2]) [mm]	MIC (Salmonella typhi [3]) [µg/mL]	MIC (Pseudomonas aeruginosa [4]) [µg/mL]	inhibition zone (IZ) (Aspergillus niger [5]) [mm]	MIC (Klebsiella pneumoniae [6]) [µg/mL]	MIC (Candida albicans [7]) [µg/mL]	inhibition zone (IZ) (Salmonella typhi [8]) [mm]	MIC (Staphylococcus aureus [9]) [µg/mL]	MIC (Escherichia coli [10]) [µg/mL]	inhibition zone (IZ) (Escherichia coli [11]) [mm]	MIC (Proteus vulgaris [12]) [µg/mL]	inhibition zone (IZ) (Candida albicans [13]) [mm]	inhibition zone (IZ) (Proteus vulgaris [14]) [mm]	MIC (Aspergillus niger [15]) [µg/mL]	inhibition zone (IZ) (Bacillus cereus [16]) [mm]	inhibition zone (IZ) (Klebsiella pneumoniae [17]) [mm]	inhibition zone (IZ) (Pseudomonas aeruginosa [18]) [mm]	MIC (Bacillus cereus [19]) [µg/mL]	MIC (Shigella flexneri [20]) [µg/mL]
CCN1CCN(c2nc(Oc3cccc4cccnc34)nc(Sc3nnc(-c4cc5ccccc5oc4=O)o3)n2)CC1	20	15	100 (≈ 172 µM)	100 (≈ 172 µM)	<10	100 (≈ 172 µM)	100 (≈ 172 µM)	16	100 (≈ 172 µM)	100 (≈ 172 µM)	16	100 (≈ 172 µM)	13	12	100 (≈ 172 µM)	13	14	18	100 (≈ 172 µM)	100 (≈ 172 µM)
O=c1oc2ccccc2cc1-c1nnc(Sc2nc(Oc3cccc4cccnc34)nc(N3CCN(c4cccc(Cl)c4)CC3)n2)o1	19	17	100 (≈ 151 µM)	100 (≈ 151 µM)	20	100 (≈ 151 µM)	50 (≈ 75.4 µM)	17	100 (≈ 151 µM)	25 (≈ 37.7 µM)	25	100 (≈ 151 µM)	20	19	100 (≈ 151 µM)	17	15	14	100 (≈ 151 µM)	100 (≈ 151 µM)
O=c1oc2ccccc2cc1-c1nnc(Sc2nc(Oc3cccc4cccnc34)nc(N3CCN(c4cccc(Cl)c4Cl)CC3)n2)o1	21	21	100 (≈ 143 µM)	50 (≈ 71.7 µM)	23	25 (≈ 35.8 µM)	50 (≈ 71.7 µM)	19	50 (≈ 71.7 µM)	25 (≈ 35.8 µM)	24	100 (≈ 143 µM)	21	17	25 (≈ 35.8 µM)	22	21	20	25 (≈ 35.8 µM)	100 (≈ 143 µM)
O=c1oc2ccccc2cc1-c1nnc(Sc2nc(Oc3cccc4cccnc34)nc(N3CCCCC3)n2)o1	<10	11	100 (≈ 181 µM)	100 (≈ 181 µM)	<10	50 (≈ 90.6 µM)	100 (≈ 181 µM)	14	100 (≈ 181 µM)	100 (≈ 181 µM)	<10	100 (≈ 181 µM)	<10	<10	100 (≈ 181 µM)	<10	20	15	100 (≈ 181 µM)	100 (≈ 181 µM)
O=c1oc2ccccc2cc1-c1nnc(Sc2nc(Oc3cccc4cccnc34)nc(N3CCOCC3)n2)o1	11	14	100 (≈ 181 µM)	100 (≈ 181 µM)	12	25 (≈ 45.2 µM)	100 (≈ 181 µM)	16	100 (≈ 181 µM)	100 (≈ 181 µM)	<10	100 (≈ 181 µM)	<10	<10	100 (≈ 181 µM)	15	22	16	100 (≈ 181 µM)	100 (≈ 181 µM)
O=c1oc2ccccc2cc1-c1nnc(Sc2nc(Oc3cccc4cccnc34)nc(N3CCN(c4ccccc4)CC3)n2)o1	<10	<10	100 (≈ 159 µM)	100 (≈ 159 µM)	<10	100 (≈ 159 µM)	100 (≈ 159 µM)	<10	100 (≈ 159 µM)	100 (≈ 159 µM)	<10	100 (≈ 159 µM)	<10	15	100 (≈ 159 µM)	12	11	13	100 (≈ 159 µM)	100 (≈ 159 µM)
CC(=O)N1CCN(c2nc(Oc3cccc4cccnc34)nc(Sc3nnc(-c4cc5ccccc5oc4=O)o3)n2)CC1	23	20	12.5 (≈ 21 µM)	12.5 (≈ 21 µM)	16	100 (≈ 168 µM)	100 (≈ 168 µM)	22	50 (≈ 84.1 µM)	100 (≈ 168 µM)	15	100 (≈ 168 µM)	13	18	100 (≈ 168 µM)	22	13	23	25 (≈ 42 µM)	25 (≈ 42 µM)
CC(C)N1CCN(c2nc(Oc3cccc4cccnc34)nc(Sc3nnc(-c4cc5ccccc5oc4=O)o3)n2)CC1	24	19	50 (≈ 84.1 µM)	25 (≈ 42 µM)	12	100 (≈ 168 µM)	100 (≈ 168 µM)	20	100 (≈ 168 µM)	100 (≈ 168 µM)	16	100 (≈ 168 µM)	11	15	100 (≈ 168 µM)	16	14	21	100 (≈ 168 µM)	25 (≈ 42 µM)
O=c1oc2ccccc2cc1-c1nnc(Sc2nc(Oc3cccc4cccnc34)nc(N3CCN(c4ccccn4)CC3)n2)o1	22	21	100 (≈ 159 µM)	100 (≈ 159 µM)	14	25 (≈ 39.7 µM)	100 (≈ 159 µM)	14	50 (≈ 79.4 µM)	100 (≈ 159 µM)	15	100 (≈ 159 µM)	17	14	100 (≈ 159 µM)	21	22	18	50 (≈ 79.4 µM)	50 (≈ 79.4 µM)
O=c1oc2ccccc2cc1-c1nnc(Sc2nc(Oc3cccc4cccnc34)nc(N3CCN(c4ncccn4)CC3)n2)o1	22	21	100 (≈ 159 µM)	100 (≈ 159 µM)	16	25 (≈ 39.6 µM)	100 (≈ 159 µM)	18	50 (≈ 79.3 µM)	100 (≈ 159 µM)	19	100 (≈ 159 µM)	17	16	100 (≈ 159 µM)	22	22	18	25 (≈ 39.6 µM)	50 (≈ 79.3 µM)
